{
  "source": "patent US20100168090A1",
  "about": "“Active Ingredient Combinations With Insecticidal and Acaricidal Properties” (BAYER CROPSCIENCE AG, priority 2006, published 2010)",
  "format_in_all_cases": "in vivo",
  "key": {"[1]": {"test_system": "green peach aphid (Myzus persicae)", "assay": "Myzus persicae test (cabbage leaves dipped)", "details": "single active compound; for Kill in % after 1 d: Table A 1", "source_text": "(§1) The expected action for a given combination of two active compounds can be calculated as follows, according to S. R. Colby, Weeds 15 (1967), 20-22:\n(§2) If • X is the kill rate, expressed as a percentage of the untreated control, when employing active compound A at an application rate of m g/ha or in a concentration of m ppm, • Y is the kill rate, expressed as a percentage of the untreated control, when employing active compound B at an application rate of n g/ha or in a concentration of n ppm and • E is the kill rate, expressed as a percentage of the untreated control, when employing active compounds A and B at application rates of m and n g/ha or in a concentration of m and n ppm, then\n(§3) If the actual kill rate exceeds the calculated value, the kill of the combination is superadditive, i.e. a synergistic effect is present. In this case, the actually observed kill rate must exceed the value calculated using the above formula for the expected kill rate (E).\n(§4) Solvent: 7 parts by weight of dimethylformamide Emulsifier: 2 parts by weight of alkylaryl polyglycol ether\n(§5) To produce a suitable preparation of active compound, 1 part by weight of active compound is mixed with the stated amounts of solvent and emulsifier, and the concentrate is diluted with emulsifier-containing water to the desired concentration.\nCabbage leaves (Brassica oleracea) which are heavily infested by the green peach aphid (Myzus persicae) are treated by being dipped into the active compound preparation of the desired concentration.\n(§6) After the desired period of time, the kill in % is determined. 100% means that all aphids have been killed; 0% means that none of the aphids have been killed. The kill rates determined are entered into Colby's formula."}, "[2]": {"test_system": "larvae of the mustard beetle (Phaedon cochleariae)", "assay": "Phaedon cochleariae larvae test (cabbage leaves dipped)", "details": "single active compound", "source_text": "as §1, §2, §3, §4\nTo produce a suitable preparation of active compound, 1 part by weight of active compound is mixed with the stated amounts of solvents and emulsifier, and the concentrate is diluted with emulsifier-containing water to the desired concentration.\nCabbage leaves (Brassica oleracea) are treated by being dipped in the active compound preparation of the desired concentration and are populated with larvae of the mustard beetle (Phaedon cochleariae) while the leaves are still moist.\nAfter the desired period of time, the kill in % is determined. 100% means that all beetle larvae have been killed; 0% means that none of the beetle larvae have been killed. The kill rates determined are entered into Colby's formula."}, "[3]": {"test_system": "cotton aphid (Aphis gossypii)", "assay": "Aphis gossypii test (cotton leaves dipped)", "details": "single active compound", "source_text": "as §1, §2, §3, §4, §5\nCotton leaves (Gossypium herbaceum) which are heavily infested by the cotton aphid (Aphis gossypii) are treated by being dipped into the active compound preparation of the desired concentration.\nas §6"}},
  "data": [
    {"compound": "O=[N+]([O-])/N=C1\\NCCN1Cc1cnc(Cl)s1", "note": "[imidaclothiz (II n), imidaclothiz]", "values": [
      {"measurement": "Kill in % after 6 d", "setting": "[1]; Table A 3, 0.16 ppm", "value": 0, "unit": "%"}
    ]},
    {"compound": "CN/C(=N\\[N+](=O)[O-])NCc1cnc(Cl)s1", "note": "[clothianidin (IIm), clothianidin]", "values": [
      {"measurement": "Kill in % after 6 d", "setting": "[2]; 0.8 ppm", "value": 25, "unit": "%"}
    ]},
    {"compound": "CCOC(=O)OC1=C(c2cc(C)ccc2C)C(=O)NC12CCC(OC)CC2", "note": "(stereo not shown) [compound (I-2-a)]", "values": [
      {"measurement": "Kill in % after 1 d", "setting": "[1]; 4 ppm", "value": 0, "unit": "%"},
      {"measurement": "Kill in % after 6 d", "setting": "[1]; Table A 3, 4 ppm", "value": 85, "unit": "%"},
      {"measurement": "Kill in % after 6 d", "setting": "[2]; 20 ppm", "value": 10, "unit": "%"},
      {"measurement": "Kill in % after 1 d", "setting": "[3]; 20 ppm", "value": 10, "unit": "%"}
    ]},
    {"compound": "CN/C(=N/CC1CCOC1)N[N+](=O)[O-]", "note": "(stereo not shown) [dinotefuran (II l), dinotefuran]", "values": [
      {"measurement": "Kill in % after 6 d", "setting": "[1]; Table A 3, 0.16 ppm", "value": 0, "unit": "%"},
      {"measurement": "Kill in % after 1 d", "setting": "[3]; 4 ppm", "value": 30, "unit": "%"}
    ]},
    {"compound": "O=[N+]([O-])NC1=NCCN1Cc1ccc(Cl)nc1", "note": "[imidacloprid (II-a), imidacloprid]", "values": [
      {"measurement": "Kill in % after 1 d", "setting": "[1]; 0.16 ppm", "value": 15, "unit": "%"},
      {"measurement": "Kill in % after 6 d", "setting": "[1]; Table A 2, 0.032 ppm", "value": 5, "unit": "%"},
      {"measurement": "Kill in % after 6 d", "setting": "[2]; 0.8 ppm", "value": 0, "unit": "%"}
    ]},
    {"compound": "CCOC(=O)OC1=C(c2cc(C)ccc2C)C(=O)N[C@]12CC[C@@H](OC)CC2", "note": "[compound (I-2)]", "values": [
      {"measurement": "Kill in % after 1 d", "setting": "[1]; 4 ppm", "value": 0, "unit": "%"},
      {"measurement": "Kill in % after 6 d", "setting": "[1]; Table A 3, 4 ppm", "value": 80, "unit": "%"},
      {"measurement": "Kill in % after 6 d", "setting": "[2]; 20 ppm", "value": 35, "unit": "%"},
      {"measurement": "Kill in % after 1 d", "setting": "[3]; 20 ppm", "value": 5, "unit": "%"}
    ]},
    {"compound": "COC1CCC2(CC1)NC(=O)C(c1cc(C)ccc1C)=C2O", "note": "(stereo not shown) [compound (I-1-a)]", "values": [
      {"measurement": "Kill in % after 6 d", "setting": "[1]; Table A 2, 0.8 ppm", "value": 0, "unit": "%"},
      {"measurement": "Kill in % after 6 d", "setting": "[2]; 20 ppm", "value": 20, "unit": "%"}
    ]},
    {"compound": "CN1COCN(Cc2cnc(Cl)s2)/C1=N\\[N+](=O)[O-]", "note": "[thiamethoxam (IIg), thiamethoxam]", "values": [
      {"measurement": "Kill in % after 6 d", "setting": "[2]; 0.8 ppm", "value": 0, "unit": "%"}
    ]},
    {"compound": "C/C(=N\\C#N)N(C)Cc1ccc(Cl)nc1", "note": "[acetamiprid (II-e), acetamiprid]", "values": [
      {"measurement": "Kill in % after 6 d", "setting": "[1]; Table A 3, 0.16 ppm", "value": 10, "unit": "%"}
    ]},
    {"compound": "CO[C@H]1CC[C@]2(CC1)NC(=O)C(c1cc(C)ccc1C)=C2O", "note": "[compound (I-1)]", "values": [
      {"measurement": "Kill in % after 6 d", "setting": "[1]; Table A 2, 0.8 ppm", "value": 5, "unit": "%"},
      {"measurement": "Kill in % after 6 d", "setting": "[2]; 20 ppm", "value": 10, "unit": "%"}
    ]},
    {"compound": "N#C/N=C1\\SCCN1Cc1ccc(Cl)nc1", "note": "[thiacloprid (IIk), thiacloprid]", "values": [
      {"measurement": "Kill in % after 6 d", "setting": "[2]; 0.8 ppm", "value": 0, "unit": "%"}
    ]}
  ]
}
